Values of other authors, collected in patent publication US20240139197A1, “INHIBITION OF KDM5A FOR PROMOTING ANTIGEN PRESENTATION, INCREASING CD8+ T CELL INFILTRATION AND BOOSTING ANTI-TUMOR IMMUNE RESPONSE” (The Wistar Institute of Anatomy and Biology, priority 2022, published 2024).
Like-named read-outs stand apart in the source and are kept apart here.

Legend:
KDM5A [1] = biological target: T1, KDM5A (Homo sapiens (Human), UniProt P29375); conditions: KDM5A inhibitors disclosed in Miyake et al; cited from earlier work
T1 sequence (P29375 whole entry): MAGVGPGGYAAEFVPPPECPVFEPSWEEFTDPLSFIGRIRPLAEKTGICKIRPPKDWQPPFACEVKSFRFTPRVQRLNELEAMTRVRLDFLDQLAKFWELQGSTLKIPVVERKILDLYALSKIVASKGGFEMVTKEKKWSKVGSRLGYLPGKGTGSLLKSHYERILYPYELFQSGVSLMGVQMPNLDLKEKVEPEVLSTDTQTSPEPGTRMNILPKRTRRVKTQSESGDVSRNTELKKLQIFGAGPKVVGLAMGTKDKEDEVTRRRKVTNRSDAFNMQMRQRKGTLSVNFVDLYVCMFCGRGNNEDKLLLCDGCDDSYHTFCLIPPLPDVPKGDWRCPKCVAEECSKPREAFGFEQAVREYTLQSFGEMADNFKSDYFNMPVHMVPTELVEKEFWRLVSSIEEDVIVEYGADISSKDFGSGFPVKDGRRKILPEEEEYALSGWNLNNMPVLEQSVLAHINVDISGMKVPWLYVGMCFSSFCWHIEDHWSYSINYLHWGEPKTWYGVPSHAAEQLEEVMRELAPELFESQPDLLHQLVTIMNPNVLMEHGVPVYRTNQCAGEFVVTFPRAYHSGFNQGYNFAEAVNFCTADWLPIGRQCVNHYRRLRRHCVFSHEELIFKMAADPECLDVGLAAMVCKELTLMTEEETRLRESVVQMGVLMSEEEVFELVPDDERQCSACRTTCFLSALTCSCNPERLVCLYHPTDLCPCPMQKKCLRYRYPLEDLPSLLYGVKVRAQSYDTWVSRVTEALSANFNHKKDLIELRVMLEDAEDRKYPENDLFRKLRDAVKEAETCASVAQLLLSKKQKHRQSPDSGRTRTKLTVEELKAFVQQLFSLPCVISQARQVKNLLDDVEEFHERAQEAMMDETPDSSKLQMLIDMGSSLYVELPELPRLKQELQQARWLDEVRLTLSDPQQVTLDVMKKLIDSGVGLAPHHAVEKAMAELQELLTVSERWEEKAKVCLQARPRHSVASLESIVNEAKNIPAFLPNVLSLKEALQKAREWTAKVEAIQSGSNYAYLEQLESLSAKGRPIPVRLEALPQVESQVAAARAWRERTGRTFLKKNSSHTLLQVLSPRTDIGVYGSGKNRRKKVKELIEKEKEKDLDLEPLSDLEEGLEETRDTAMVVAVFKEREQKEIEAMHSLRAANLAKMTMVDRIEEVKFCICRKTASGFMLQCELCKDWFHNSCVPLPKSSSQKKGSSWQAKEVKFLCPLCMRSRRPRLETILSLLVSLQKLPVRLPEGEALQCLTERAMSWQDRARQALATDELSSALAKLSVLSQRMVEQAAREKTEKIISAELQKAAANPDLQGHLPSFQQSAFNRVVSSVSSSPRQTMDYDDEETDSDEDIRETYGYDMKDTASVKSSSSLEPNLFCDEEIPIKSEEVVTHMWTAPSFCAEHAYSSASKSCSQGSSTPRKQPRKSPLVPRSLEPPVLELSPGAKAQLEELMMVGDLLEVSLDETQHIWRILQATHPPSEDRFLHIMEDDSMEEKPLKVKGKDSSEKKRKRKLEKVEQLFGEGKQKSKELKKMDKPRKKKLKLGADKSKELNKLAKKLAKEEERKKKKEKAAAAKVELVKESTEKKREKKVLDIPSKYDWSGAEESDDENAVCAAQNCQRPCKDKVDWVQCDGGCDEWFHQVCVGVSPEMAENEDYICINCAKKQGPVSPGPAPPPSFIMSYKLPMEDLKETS

KDM5B = KDM5B (Homo sapiens (Human), UniProt Q9UGL1); conditions: biochemical assay with pre-incubation; cited from earlier work
Chain of KDM5B (Q9UGL1 whole entry, species assumed): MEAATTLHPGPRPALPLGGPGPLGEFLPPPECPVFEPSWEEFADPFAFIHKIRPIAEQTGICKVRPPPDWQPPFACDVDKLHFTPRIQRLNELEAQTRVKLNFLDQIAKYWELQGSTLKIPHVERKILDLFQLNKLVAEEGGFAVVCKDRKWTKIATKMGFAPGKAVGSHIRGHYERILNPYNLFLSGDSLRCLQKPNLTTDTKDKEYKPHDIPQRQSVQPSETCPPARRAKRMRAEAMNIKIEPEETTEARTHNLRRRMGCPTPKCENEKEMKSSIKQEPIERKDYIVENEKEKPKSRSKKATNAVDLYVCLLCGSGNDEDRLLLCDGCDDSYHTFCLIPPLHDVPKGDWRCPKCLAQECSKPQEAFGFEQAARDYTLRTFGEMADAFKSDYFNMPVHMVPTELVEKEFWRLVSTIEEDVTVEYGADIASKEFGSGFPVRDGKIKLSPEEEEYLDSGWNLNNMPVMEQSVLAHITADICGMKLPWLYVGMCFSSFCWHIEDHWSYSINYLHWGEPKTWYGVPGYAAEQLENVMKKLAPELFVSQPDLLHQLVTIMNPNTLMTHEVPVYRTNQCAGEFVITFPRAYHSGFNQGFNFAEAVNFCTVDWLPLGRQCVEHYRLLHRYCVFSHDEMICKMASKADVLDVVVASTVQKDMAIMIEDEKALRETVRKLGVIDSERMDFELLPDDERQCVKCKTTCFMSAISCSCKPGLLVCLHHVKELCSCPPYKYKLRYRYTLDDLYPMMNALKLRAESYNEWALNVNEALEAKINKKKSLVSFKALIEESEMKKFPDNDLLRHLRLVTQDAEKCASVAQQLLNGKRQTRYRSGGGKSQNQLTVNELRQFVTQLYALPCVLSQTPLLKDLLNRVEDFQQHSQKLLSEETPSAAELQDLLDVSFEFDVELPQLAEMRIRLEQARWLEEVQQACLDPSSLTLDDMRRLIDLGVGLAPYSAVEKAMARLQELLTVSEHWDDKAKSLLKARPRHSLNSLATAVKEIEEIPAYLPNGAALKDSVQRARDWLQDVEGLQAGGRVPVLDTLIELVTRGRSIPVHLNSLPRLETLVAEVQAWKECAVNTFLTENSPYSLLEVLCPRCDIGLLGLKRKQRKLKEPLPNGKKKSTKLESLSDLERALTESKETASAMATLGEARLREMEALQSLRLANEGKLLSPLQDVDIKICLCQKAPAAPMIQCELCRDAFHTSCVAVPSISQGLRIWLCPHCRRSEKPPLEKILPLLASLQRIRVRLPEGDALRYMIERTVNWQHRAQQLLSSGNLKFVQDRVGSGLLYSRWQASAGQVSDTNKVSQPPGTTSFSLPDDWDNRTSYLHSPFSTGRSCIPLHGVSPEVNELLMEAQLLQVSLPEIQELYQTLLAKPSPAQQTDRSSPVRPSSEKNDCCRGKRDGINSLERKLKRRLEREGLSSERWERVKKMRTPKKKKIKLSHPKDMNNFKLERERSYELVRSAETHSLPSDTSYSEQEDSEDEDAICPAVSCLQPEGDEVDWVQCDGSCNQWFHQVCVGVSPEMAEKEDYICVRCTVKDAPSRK

KDM5A [2] = biological target: T1, KDM5A; conditions: biochemical assay with pre-incubation; cited from earlier work
KDM4C = KDM4C (Homo sapiens (Human), UniProt Q9H3R0); conditions: biochemical assay with pre-incubation; cited from earlier work
Chain of KDM4C (Q9H3R0 whole entry, species assumed): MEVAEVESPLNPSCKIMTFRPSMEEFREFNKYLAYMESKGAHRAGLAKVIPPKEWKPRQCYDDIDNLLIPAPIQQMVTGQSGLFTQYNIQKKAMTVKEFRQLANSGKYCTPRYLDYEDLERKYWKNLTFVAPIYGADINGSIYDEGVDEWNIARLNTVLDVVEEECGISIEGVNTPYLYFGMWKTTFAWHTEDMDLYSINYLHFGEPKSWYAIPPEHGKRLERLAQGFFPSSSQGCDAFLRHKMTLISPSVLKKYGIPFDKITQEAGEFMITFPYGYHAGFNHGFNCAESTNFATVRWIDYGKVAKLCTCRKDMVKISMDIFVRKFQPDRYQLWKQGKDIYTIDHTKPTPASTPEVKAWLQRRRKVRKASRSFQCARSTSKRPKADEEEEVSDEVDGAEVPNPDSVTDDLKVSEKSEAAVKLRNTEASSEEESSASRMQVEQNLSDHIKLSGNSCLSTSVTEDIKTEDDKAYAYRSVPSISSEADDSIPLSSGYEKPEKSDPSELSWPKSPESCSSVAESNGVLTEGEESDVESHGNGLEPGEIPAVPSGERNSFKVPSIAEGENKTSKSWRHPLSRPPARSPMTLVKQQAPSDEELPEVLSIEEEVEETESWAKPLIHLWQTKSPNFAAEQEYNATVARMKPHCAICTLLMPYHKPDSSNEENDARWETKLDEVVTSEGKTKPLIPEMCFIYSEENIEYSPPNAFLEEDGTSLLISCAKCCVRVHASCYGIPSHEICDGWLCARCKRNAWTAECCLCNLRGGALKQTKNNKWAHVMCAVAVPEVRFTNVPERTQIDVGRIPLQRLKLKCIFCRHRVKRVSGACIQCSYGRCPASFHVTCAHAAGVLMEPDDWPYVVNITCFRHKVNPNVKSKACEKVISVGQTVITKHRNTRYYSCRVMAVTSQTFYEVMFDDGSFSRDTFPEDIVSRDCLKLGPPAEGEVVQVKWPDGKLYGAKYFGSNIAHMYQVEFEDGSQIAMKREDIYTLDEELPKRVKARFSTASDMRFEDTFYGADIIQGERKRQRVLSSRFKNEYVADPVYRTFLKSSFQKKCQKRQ

Compound: CCCCCCN(C)Cc1cccc(-c2[nH]c3c(C#N)cnn3c(=O)c2C(C)C)c1 [Compound 11]
- IC50 (KDM5A [1]): 0.0653 ± 0.0086 µM

Compound: CCCCCCN(C)Cc1cc(-c2[nH]c3c(C#N)cnn3c(=O)c2C(C)C)cs1 [Compound 12]
- IC50 (KDM5A [1]): 0.179 ± 0.012 µM

Compound: CCCCCCN(C)CCc1ccc(-c2[nH]c3c(C#N)cnn3c(=O)c2C(C)C)cc1 [Compound 13]
- IC50 (KDM5A [1]): 0.00437 ± 0.00019 µM

Compound: O=C(O)c1ccnc(-n2nccc2OCc2ccc(Cl)cc2F)c1 [Compound 32]
- IC50 (KDM5B): 0.004 µM
- IC50 (KDM5A [2]): 0.018 µM

Compound: Cc1cc(Cl)ccc1COc1ccnn1-c1cc(C(=O)O)ccn1 [Compound 33]
- IC50 (KDM5B): 0.002 µM
- IC50 (KDM4C): 0.041 µM
- IC50 (KDM5A [2]): 0.013 µM

Compound: COc1cc(Cl)ccc1COc1ccnn1-c1cc(C(=O)O)ccn1 [Compound 34]
- IC50 (KDM4C): 0.038 µM
- IC50 (KDM5A [2]): 0.012 µM

Compound: CCOc1cc(Cl)ccc1COc1ccnn1-c1cc(C(=O)O)ccn1 [Compound 35]
- IC50 (KDM5B): 0.004 µM
- IC50 (KDM4C): 0.078 µM

Compound: O=C(O)c1ccnc(-n2nccc2OCc2ccc(Cl)cc2OCC2CC2)c1 [Compound 36]
- IC50 (KDM4C): 0.28 µM
